Experimental data: patent US20230355597A1, “COMPOUNDS, COMPOSITIONS, AND METHODS FOR THE TREATMENT AND PREVENTION OF AVIAN PATHOGENIC E. COLI (APEC)” (OHIO STATE INNOVATION FOUNDATION, priority 2018, published 2023)
Marks after values point to notes of the source that are not given here.

Assays:
APEC O1 = format: cell-based, avian pathogenic Escherichia coli (APEC); details: APEC O1, M63 media; MIC/MBC
[1] = test system: intracellular APEC O78 in Caco-2 cells; experiment: Intracellular survival assay (cidal SMs); details: O78, Caco-2, 6 h treatment; superscript = multiple of MIC
APEC O78 [2] = format: cell-based, avian pathogenic Escherichia coli (APEC); details: APEC O78, M63 media; cell prints MIC/MBC
APEC O8 = format: cell-based, avian pathogenic Escherichia coli (APEC); details: APEC O8, M63 media; MIC/MBC
APEC O2-211 = format: cell-based, avian pathogenic Escherichia coli (APEC); details: APEC O2-211, M63 media; MIC/MBC
APEC O78 [3] = experiment: Confocal microscopy bacterial cytological profiling; format: cell-based, avian pathogenic Escherichia coli (APEC); details: 2X MBC
Description: Confocal and scanning electron microscopy. Confocal microscopy was used for bacterial cytological profiling (BCP) to identify the cellular pathways targeted by SMs as described previously. […] After incubation, treated cultures were centrifuged, washed, and resuspended in 100 μL PBS. […] Cultures were then centrifuged, washed, and resuspended in PBS to 1⁄10th volume of the original cultures.

APEC O78-53 = format: cell-based, avian pathogenic Escherichia coli (APEC); details: APEC O78-53, M63 media; MIC/MBC
APEC O78 [4] = experiment: Loss of 260/280 nm absorbing materials assay; format: cell-based, avian pathogenic Escherichia coli (APEC); details: 2X MBC, 1 h, *P<0.05 vs DMSO; for Absorbance 260: 260 nm absorbing material in supernatant; for Absorbance 280: 280 nm absorbing material in supernatant
[5] = test system: intracellular APEC O2 in HD11 cells; experiment: Intracellular survival assay (cidal SMs); details: O2, HD11, 6 h treatment; superscript = multiple of MIC
[6] = test system: intracellular APEC O2 in Caco-2 cells; experiment: Intracellular survival assay (cidal SMs); details: O2, Caco-2, 6 h treatment; superscript = multiple of MIC
[7] = test system: intracellular APEC O78 in THP-1 cells; experiment: Intracellular survival assay (cidal SMs); details: O78, THP-1, 6 h treatment; superscript = multiple of MIC
[8] = test system: intracellular APEC O1 in Caco-2 cells; experiment: Intracellular survival assay (cidal SMs); details: O1, Caco-2, 6 h treatment; superscript = multiple of MIC
APEC O18 = format: cell-based, avian pathogenic Escherichia coli (APEC); details: APEC O18, M63 media; MIC/MBC
APEC O109 = format: cell-based, avian pathogenic Escherichia coli (APEC); details: APEC O109, M63 media; MIC/MBC
[9] = test system: intracellular APEC O1 in THP-1 cells; experiment: Intracellular survival assay (cidal SMs); details: O1, THP-1, 6 h treatment; superscript = multiple of MIC
[10] = test system: intracellular APEC O78 in HD11 cells; experiment: Intracellular survival assay (cidal SMs); details: O78, HD11, 6 h treatment; superscript = multiple of MIC
[11] = test system: intracellular APEC O2 in THP-1 cells; experiment: Intracellular survival assay (cidal SMs); details: O2, THP-1, 6 h treatment; superscript = multiple of MIC
APEC O15 = format: cell-based, avian pathogenic Escherichia coli (APEC); details: APEC O15, M63 media; MIC/MBC
[12] = test system: intracellular APEC O1 in HD11 cells; experiment: Intracellular survival assay (cidal SMs); details: O1, HD11, 6 h treatment; superscript = multiple of MIC
[13] = test system: biofilm embedded APEC O78; experiment: MBEC High-throughput assay; format: cell-based, avian pathogenic Escherichia coli (APEC); details: biofilm embedded APEC O78; superscript = multiple of MIC (footnote)
APEC O35 = format: cell-based, avian pathogenic Escherichia coli (APEC); details: APEC O35, M63 media; MIC/MBC
[14] = Pilot experiment in chickens; format: in vivo, chicken
APEC O115 = format: cell-based, avian pathogenic Escherichia coli (APEC); details: APEC O115, M63 media; MIC/MBC
APEC O2 = format: cell-based, avian pathogenic Escherichia coli (APEC); details: APEC O2, M63 media; MIC/MBC
APEC O1-63 = format: cell-based, avian pathogenic Escherichia coli (APEC); details: APEC O1-63, M63 media; MIC/MBC
Rif^r APEC O78 = experiment: In vivo efficacy of growth inhibitors in APEC infected broiler chickens

CCCCCCCCCCCCCCCCn1c[n+](C)c2ccccc21.[Br-] [SM5]
25 µM: MBC (APEC O78 [2]) | MBC (APEC O35) | MBC (APEC O2) | MBC (APEC O1-63)
membrane disruptors: cytological profile (confocal, FM4-64 / SYTO-9) (APEC O78 [3])
12.5 µM: MBC (APEC O1) | MIC (APEC O1) | MIC (APEC O78 [2]) | MBC (APEC O8) | MIC (APEC O8) | MBC (APEC O2-211) | MIC (APEC O2-211) | MBC (APEC O78-53) | MIC (APEC O78-53) | MBC (APEC O18) | MIC (APEC O18) | MBC (APEC O109) | MIC (APEC O109) | MBC (APEC O15) | MIC (APEC O15) | MIC (APEC O35) | MBC (APEC O115) | MIC (APEC O115) | MIC (APEC O2) | MIC (APEC O1-63)
no negative impact: impact on chicken health and performance [14]
100^d µM: SMs intracellular APEC clearance concentration [6] | SMs intracellular APEC clearance concentration [8] | SMs intracellular APEC clearance concentration [9] | SMs intracellular APEC clearance concentration [12]
2.67*: Absorbance 280 (APEC O78 [4])
4.00*: Absorbance 260 (APEC O78 [4])
50^c µM: SMs intracellular APEC clearance concentration [1] | SMs intracellular APEC clearance concentration [5] | SMs intracellular APEC clearance concentration [7] | SMs intracellular APEC clearance concentration [10] | SMs intracellular APEC clearance concentration [11]
25^c µM: MBEC [13]

CCCCCCCCCCCCCCCC[n+]1ccn(CC#N)c1 [SM6]
-41.2%: reduction of APEC lesions severity (%), Air-sacs (airsacculitis) (Rif^r APEC O78; untreated control = 100%)
no negative impact: impact on chicken health and performance [14]
12.5^a µM: MBEC [13]
12.5 µM: MIC (APEC O1) | MIC (APEC O78 [2]) | MBC (APEC O8) | MIC (APEC O8) | MBC (APEC O2-211) | MIC (APEC O2-211) | MIC (APEC O78-53) | MIC (APEC O18) | MBC (APEC O109) | MIC (APEC O109) | MIC (APEC O15) | MIC (APEC O35) | MIC (APEC O115) | MIC (APEC O1-63)
3.99*: Absorbance 260 (APEC O78 [4])
1.9 log CFU/g of tissues: reduction of APEC load, Kidney (Rif^r APEC O78; vs untreated control)
25 µM: MBC (APEC O1) | MBC (APEC O78 [2]) | MBC (APEC O78-53) | MBC (APEC O18) | MBC (APEC O15) | MBC (APEC O35) | MBC (APEC O115) | MBC (APEC O2) | MIC (APEC O2) | MBC (APEC O1-63)
membrane disruptors: cytological profile (confocal, FM4-64 / SYTO-9) (APEC O78 [3])
50^c µM: SMs intracellular APEC clearance concentration [1] | SMs intracellular APEC clearance concentration [5] | SMs intracellular APEC clearance concentration [7] | SMs intracellular APEC clearance concentration [10] | SMs intracellular APEC clearance concentration [11]
222.18±54.01: Body weight gain (BWG) (Rif^r APEC O78; weight of live chickens before necropsy minus weight before treatment)
2.69*: Absorbance 280 (APEC O78 [4])
5.4: cumulative lesions score (Rif^r APEC O78; liver, heart, lung and air-sacs, untreated 6.2)
42.86%: reduction of APEC induced mortality (Rif^r APEC O78; oral gavage twice a day, 5 days, untreated mortality (58.34%) normalized to 100%)
1.3 log CFU/g of tissues: reduction of APEC load, Heart (Rif^r APEC O78; vs untreated control)
33.3%: reduction of APEC lesions severity (%), Lung (lung congestion) (Rif^r APEC O78; untreated control = 100%)
1.2 log CFU/g of tissues: reduction of APEC load, Liver (Rif^r APEC O78; vs untreated control) | reduction of APEC load, Lung (Rif^r APEC O78; vs untreated control)
100^d µM: SMs intracellular APEC clearance concentration [6] | SMs intracellular APEC clearance concentration [8] | SMs intracellular APEC clearance concentration [9] | SMs intracellular APEC clearance concentration [12]
20%: reduction of APEC lesions severity (%), Heart (pericarditis) (Rif^r APEC O78; untreated control = 100%)
1.4 logs: reduction of average APEC load in internal organs (Rif^r APEC O78; average of liver, heart, lung and kidney, vs untreated control)
